One data set deals with T1, Monoamine Oxidase A (Rattus norvegicus, UniProt P21396).
T1 construct: serves as the tissue source for mitochondrial monoamine oxidase; from tissue; host or cells: rat whole brain minus cerebellum, P2 mitochondrial pellet
T1 sequence (P21396 1-526): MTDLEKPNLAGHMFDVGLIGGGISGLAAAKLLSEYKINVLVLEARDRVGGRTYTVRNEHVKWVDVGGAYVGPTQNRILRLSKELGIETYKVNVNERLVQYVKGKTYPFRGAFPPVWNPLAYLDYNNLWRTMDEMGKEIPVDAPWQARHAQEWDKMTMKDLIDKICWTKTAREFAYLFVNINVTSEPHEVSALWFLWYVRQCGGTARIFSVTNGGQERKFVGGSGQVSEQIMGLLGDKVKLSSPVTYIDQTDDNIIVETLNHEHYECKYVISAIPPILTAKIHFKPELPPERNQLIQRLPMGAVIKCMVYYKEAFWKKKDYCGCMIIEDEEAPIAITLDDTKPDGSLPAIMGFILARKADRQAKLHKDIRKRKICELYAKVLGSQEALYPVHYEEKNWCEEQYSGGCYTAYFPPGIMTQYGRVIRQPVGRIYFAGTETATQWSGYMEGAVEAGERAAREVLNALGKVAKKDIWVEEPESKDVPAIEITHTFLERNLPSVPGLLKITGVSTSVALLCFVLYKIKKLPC
As to the kind of experiment: in vitro inhibition of monoamine oxidase assay, monoamine oxidase-A. The following applies: rat brain mitochondrial monoamine oxidase; substrate [3H]-5-hydroxytryptamine 200 μM; 30 minutes at 37° C. It is filed as biochemical, Male Wistar rats. Here is the method:
In this assay, a modification of an assay described by M. V. Kindt, et al., Europ. J. Pharmnacol. 146: 313-318 1988.
1. Phosphate buffer (0.5 M), pH 7.4; 134.4 g dibasic sodium phosphate heptahydrate q.s. to 1 liter in distilled water (A) 17.3 g monobasic sodium phosphate q.s. to 250 ml in distilled water (B) Adjust pH of A to 7.4 by slowly adding B (volumes as needed) Dilute 1:10 in distilled water (0.05 M phosphate buffer, pH 7.4) 2. 0.25 M Sucrose (phosphate buffered): 21.4 g sucrose, q.s. to 250 nil with 0.05 M phosphate buffer a. serotonin creatine sulphate (5-hydroxytryptamine) is obtained from Sigma Chemical Company. A 5 mM stock solution ig made up in 0.01 N-hydrochloric acid. The solution is used to dilute the specific activity of the [^3H]-hydroxytryptamine. […]
b. [^3H]-5-hydroxytryptamine binoxalate (20-30 Ci/mmol) is obtained from New England Nuclear. c. Add 12 μl of [^3H]-5-hydroxytryptamine to 2 ml of the 5 mM 5-hydroxytryptamine solution. (Final amine concentration in the assay is 200 μM: see below.)
5. Equal amounts of monoamine oxidase-A (5-hydroxyttyptamine) and monoamine oxidase-B (β-phenethylamine) substrates are combined for simultaneously testing both monoamine oxidase types, i.e., mixed stock solution of 2.5 mM 5-hydroxytryptamine and 2.5 mM β-phenethylamine. 40 μl of this mixed solution gives a 200 μM final concentration of each amine in the assay. When testing only one monoamine oxidase type, the individual 5 mM stock solutions must be diluted 1:1 with distilled water prior to adding 40 μl to the incubation mixture; i.e., same 200 μM final amine concentration.
6. Stock solutions of test drugs are made up in appropriate vehicles and serially diluted to give final concentrations ranging from 10^−7 to 10^−3 molar in the assay. […]
Tubes are preincubated for 15 minutes at 37° C. and the assay is started by adding 40 μl of combined substrate ([^3H]-5-hydroxytryptamine and [^14C]-β-phenethylamin) at 15 second intervals. […] Tissue blank values are determined by adding the acid before the radioactive substrate. […] IC50 values are determined by log-probit analysis.

The target in the next data set is T2, Acetylcholinesterase (Rattus norvegicus, UniProt P37136).
T2 construct: corpora striata dissected free, weighted and homogenized in 19 volumes; from tissue; host or cells: rat corpus striatum homogenate
T2 sequence (P37136 32-614): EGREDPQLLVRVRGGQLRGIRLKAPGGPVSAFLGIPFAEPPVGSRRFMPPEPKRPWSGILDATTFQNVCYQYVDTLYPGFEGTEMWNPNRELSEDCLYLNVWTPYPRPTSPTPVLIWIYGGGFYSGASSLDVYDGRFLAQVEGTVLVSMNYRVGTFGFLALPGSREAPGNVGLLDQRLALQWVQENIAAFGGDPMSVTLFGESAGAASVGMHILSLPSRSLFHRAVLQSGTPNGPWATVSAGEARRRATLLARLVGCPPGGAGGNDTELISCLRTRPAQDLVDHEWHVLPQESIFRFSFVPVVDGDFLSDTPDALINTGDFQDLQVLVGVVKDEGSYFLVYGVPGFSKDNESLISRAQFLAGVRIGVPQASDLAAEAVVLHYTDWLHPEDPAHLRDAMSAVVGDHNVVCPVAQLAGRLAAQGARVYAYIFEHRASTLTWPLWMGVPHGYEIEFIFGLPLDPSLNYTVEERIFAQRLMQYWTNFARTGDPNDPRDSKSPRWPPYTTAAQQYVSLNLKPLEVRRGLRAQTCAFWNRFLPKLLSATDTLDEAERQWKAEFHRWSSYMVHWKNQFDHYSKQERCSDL
As to the kind of experiment: biochemical. Further details: species or system Male Wistar rats.

The target in the next data set is T3, Monoamine Oxidase B (Rattus norvegicus, UniProt P19643).
T3 construct: serves as the tissue source for mitochondrial monoamine oxidase; from tissue; host or cells: rat whole brain minus cerebellum, P2 mitochondrial pellet
T3 sequence (P19643 1-520): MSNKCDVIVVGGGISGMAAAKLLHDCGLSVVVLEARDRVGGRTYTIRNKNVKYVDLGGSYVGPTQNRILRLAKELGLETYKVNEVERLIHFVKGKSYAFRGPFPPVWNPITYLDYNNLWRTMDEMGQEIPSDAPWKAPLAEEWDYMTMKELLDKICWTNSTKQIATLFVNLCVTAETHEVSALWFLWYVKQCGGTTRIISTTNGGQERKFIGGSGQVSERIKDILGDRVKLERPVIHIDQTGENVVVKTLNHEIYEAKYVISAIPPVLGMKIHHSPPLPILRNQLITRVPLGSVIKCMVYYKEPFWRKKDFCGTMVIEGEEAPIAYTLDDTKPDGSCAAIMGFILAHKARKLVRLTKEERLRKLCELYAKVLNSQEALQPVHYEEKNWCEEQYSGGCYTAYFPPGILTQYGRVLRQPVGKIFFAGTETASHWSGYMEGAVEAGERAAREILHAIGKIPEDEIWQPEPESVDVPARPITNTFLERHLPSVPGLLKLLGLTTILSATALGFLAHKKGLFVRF
As to the kind of experiment: in vitro inhibition of monoamine oxidase assay, monoamine oxidase-B. It is filed as biochemical, Male Wistar rats. Particulars: rat brain mitochondrial monoamine oxidase; substrate [14C]-β-phenethylamine 200 μM; 30 minutes at 37° C.

Where a name gives a salt, the structure may show the parent alone. Read-outs that look alike come from different tables or passages of the source.

Method for Monoamine Oxidase B: Phosphate buffer (0.5 M), pH 7.4; 134.4 g dibasic sodium phosphate heptahydrate q.s. to 1 liter in distilled water (A) 17.3 g monobasic sodium phosphate q.s. to 250 ml in distilled water (B) Adjust pH of A to 7.4 by slowly adding B (volumes as needed) Dilute 1:10 in distilled water (0.05 M phosphate buffer, pH 7.4) 2. 0.25 M Sucrose (phosphate buffered): 21.4 g sucrose, q.s. to 250 nil with 0.05 M phosphate buffer a. β-phenethylamine is obtained from Sigma Chemical Company. A 5 mM stock solution is made up in 0.01 N-hydrochloric acid. The solution is used to dilute the specific activity of the [^14C]-β-phenethylamine.
b. β-[ethyl-1-^14C]-phenethylamine hydrochloride (40-50 mCi/mmol) is obtained from New England Nuclear. c. Add 12 μl of [^14C]-β-phenothylaamine to 2 ml of the 5 mM β-phenethylamine solution. (Final amine concentration in the assay is 200 μM: see below.) […]

Regarding `COc1ccc(NN=C2CCCC23CCNCC3)cc1` (as salt: hydrochloride) [8-Azaspiror4,5]decane-1-[N′-(4-methoxy)phenyl]hydrazone hydrochloride], the melting point (as a rule, the temperature, or range, at which the solid turns liquid) was 252 to 253 °C.
For `COc1cccc(CN2CCC3(CCc4c3n(C)c3ccccc43)CC2)c1` [1,4-Dihydro-1′-(3-methoxyphenyl)methyl-4-methylspiro[cyclopent[b]indole-3(2H), 4′piperidine]], the IC50 (in general, the concentration needed to halve the response being measured) at Monoamine Oxidase A was determined as 51.2 µM.
Turning to `COc1ccc(CN2CCC3(CCc4c3n(C)c3ccccc43)CC2)cc1` [1,4-Dihydro-1′-(4-methoxyphenyl)methyl-4-methylspiro[cyclopent[b]indole-3(2H), 4′-piperidine]], the figures for the IC50 on Acetylcholinesterase (read-out: Inhibition of Acetylcholinesterase Activity IC50), on Monoamine Oxidase A and against Monoamine Oxidase B were 65.2 µM, 98.6 µM and 125 µM, respectively.
With `Cn1c2c(c3ccccc31)CCC21CCNCC1` [1,4-Dihydro-4-methylspiro[cyclopent[b]indole-3(2H), 4′-piperidine]hydrochloride], the IC50 against Acetylcholinesterase stood at 84.1 µM.
For the compound `CN(C)C(=O)Oc1ccc2c(c1)c1c(n2C)C2(CCNCC2)CC1` [1,4-Dihydro-7-dimethylaminocarbonyloxy-4-methylspirorcyclopentfblindole-3(2H), 4′-piperidine]hemihydrate], the IC50 against Acetylcholinesterase turned out to be 64 µM.
On the same count and under the same terms, the value for `Cn1c2c(c3cc(O)ccc31)CCC21CCN(Cc2ccccc2)CC1` [1,4-Dihydro-7-hydroxy-4-methyl-1′-phenylmethylspiro[cyclopent[b]indole-3(2H), 4′-piperidine hydrochloride] was 20.4 µM.
Regarding `COc1ccc(NN=C2CCCC23CCNCC3)cc1` [8-Azaspiror4,5]decane-1-[N′-(4-methoxy)phenyl]hydrazone hydrochloride], the IC50 on Monoamine Oxidase A came out at 37.2 µM; on Monoamine Oxidase B it was 3.7 µM.

Source of the values: US6479501B2 (priority 1996, dated 2002).
